Measurements from patent US20260356830A1, “COMPOUNDS FOR MODULATING RET PROTEIN” (Bristol-Myers Squibb Company, priority 2022, published 2026).

Target: T1, CCDC6-RET (Homo sapiens, UniProt P07949+Q16204+Q96SW2)
T1 construct: CCDC6 (natural N-terminal fusion partner, UniProt Q16204); endogenous in cells; host or cells: TPC-1 (parental, papillary thyroid carcinoma)
Test: Cellular RET degradation, AlphaLISA, TPC-1 cell line
Format: cell-based
Settings: for Dmax: TPC1, human, 24 h, read-out: Cell Density TPC-1/CCDC6-RET Ymax %; for DC50: read-out: Cell Density TPC-1/CCDC6-RET DC50, half-maximal degradation concentration, TPC-1 (CCDC6-RET), 24 hrs
Experimental: Cellular RET degradation compound potency was determined using the bead-based luminescent amplification assay-AlphaLISA Surefire Ultra Detection Kit (Perkin-Elmer). The CCDC6-RET fusion expressing papillary thyroid carcinoma (TPC-1) cell line was selected for screening of potential degraders: Parental (TPC-1/CCDC6-RET). Cells were plated in 384 well culture plates (Greiner Bio-One) at 10,000 cells/well in 50 ul/well DMEM (Fisher Scientific) with 2% FBS serum (Gibco). […] Low normalization wells were media only and high normalization wells were cells treated with DMSO only. Treated cell plates were placed in an incubator at 37 °C and 5% CO2 for 24 hrs. At 24 hrs, cell media was removed by a FELIX automated liquid hander (Analytik Jena) and 25 ul of cell lysis buffer (provided in AlphaLisa kit) was added to each well. […] cell lysate were transferred into a 384-well microplate (Perkin Elmer) before addition of 2.5 ul AlphaLISA Acceptor Bead mix. The plates were sealed and kept at room temperature for 1 hr before addition of donor bead mixture. Donor bead addition was performed in the dark and incubated for >1 hr before AlphaLISA luminescence was measured on an Envision plate reader with an Alphascreen aperture at RT (excitation 680 nm, emission 615 nm). RET protein abundance (and therefore degradation) directly corresponds to luminescence intensity.
Intensities were normalized relative to the average values from 16 wells containing media alone (blank-low) and 16 wells containing cells +DMSO (high). % Degradation for each well was determined using the standard equation, where
DC50 (IC50) values for each compound tested are calculated by analyzing plots of % degradation versus compound concentration, and fitting to the standard 4-parameter logistic curve where,
DC50 values are calculated according to the relationship,
Compound replicates were performed in independent assays. Maximum degradation (YMax) was defined as the maximal % degradation value from the 4-parameter logistic equation, as previously described.

T1 sequence (Q16204+P07949 fused): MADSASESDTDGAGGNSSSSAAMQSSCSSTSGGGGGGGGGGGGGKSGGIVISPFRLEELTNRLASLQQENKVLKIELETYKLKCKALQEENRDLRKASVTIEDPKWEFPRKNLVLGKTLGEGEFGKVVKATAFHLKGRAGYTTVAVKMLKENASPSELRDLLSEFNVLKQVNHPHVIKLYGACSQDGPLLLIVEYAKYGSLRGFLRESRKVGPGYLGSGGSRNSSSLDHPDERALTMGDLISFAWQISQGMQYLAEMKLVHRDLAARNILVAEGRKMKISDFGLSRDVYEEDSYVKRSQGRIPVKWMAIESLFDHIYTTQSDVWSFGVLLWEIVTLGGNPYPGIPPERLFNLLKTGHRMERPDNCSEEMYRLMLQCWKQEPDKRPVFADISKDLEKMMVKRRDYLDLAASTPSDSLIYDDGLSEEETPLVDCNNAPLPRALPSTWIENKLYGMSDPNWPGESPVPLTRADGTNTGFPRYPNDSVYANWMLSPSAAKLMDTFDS
T1 sequence (Q96SW2 whole entry, the tested form may be a part): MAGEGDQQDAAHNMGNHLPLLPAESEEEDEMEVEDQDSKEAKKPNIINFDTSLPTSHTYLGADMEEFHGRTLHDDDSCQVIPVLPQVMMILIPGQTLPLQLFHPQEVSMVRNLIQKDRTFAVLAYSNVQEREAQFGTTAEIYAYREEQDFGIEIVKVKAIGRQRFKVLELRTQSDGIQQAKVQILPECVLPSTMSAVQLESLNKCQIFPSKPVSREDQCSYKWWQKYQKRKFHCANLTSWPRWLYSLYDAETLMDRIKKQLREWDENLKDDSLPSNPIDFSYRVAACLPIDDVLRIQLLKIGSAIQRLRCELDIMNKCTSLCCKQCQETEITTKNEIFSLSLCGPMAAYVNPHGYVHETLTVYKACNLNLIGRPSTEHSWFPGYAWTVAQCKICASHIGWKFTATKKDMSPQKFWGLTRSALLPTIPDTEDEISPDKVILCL
T1 sequence (Q16531 whole entry partner, the tested form may be a part): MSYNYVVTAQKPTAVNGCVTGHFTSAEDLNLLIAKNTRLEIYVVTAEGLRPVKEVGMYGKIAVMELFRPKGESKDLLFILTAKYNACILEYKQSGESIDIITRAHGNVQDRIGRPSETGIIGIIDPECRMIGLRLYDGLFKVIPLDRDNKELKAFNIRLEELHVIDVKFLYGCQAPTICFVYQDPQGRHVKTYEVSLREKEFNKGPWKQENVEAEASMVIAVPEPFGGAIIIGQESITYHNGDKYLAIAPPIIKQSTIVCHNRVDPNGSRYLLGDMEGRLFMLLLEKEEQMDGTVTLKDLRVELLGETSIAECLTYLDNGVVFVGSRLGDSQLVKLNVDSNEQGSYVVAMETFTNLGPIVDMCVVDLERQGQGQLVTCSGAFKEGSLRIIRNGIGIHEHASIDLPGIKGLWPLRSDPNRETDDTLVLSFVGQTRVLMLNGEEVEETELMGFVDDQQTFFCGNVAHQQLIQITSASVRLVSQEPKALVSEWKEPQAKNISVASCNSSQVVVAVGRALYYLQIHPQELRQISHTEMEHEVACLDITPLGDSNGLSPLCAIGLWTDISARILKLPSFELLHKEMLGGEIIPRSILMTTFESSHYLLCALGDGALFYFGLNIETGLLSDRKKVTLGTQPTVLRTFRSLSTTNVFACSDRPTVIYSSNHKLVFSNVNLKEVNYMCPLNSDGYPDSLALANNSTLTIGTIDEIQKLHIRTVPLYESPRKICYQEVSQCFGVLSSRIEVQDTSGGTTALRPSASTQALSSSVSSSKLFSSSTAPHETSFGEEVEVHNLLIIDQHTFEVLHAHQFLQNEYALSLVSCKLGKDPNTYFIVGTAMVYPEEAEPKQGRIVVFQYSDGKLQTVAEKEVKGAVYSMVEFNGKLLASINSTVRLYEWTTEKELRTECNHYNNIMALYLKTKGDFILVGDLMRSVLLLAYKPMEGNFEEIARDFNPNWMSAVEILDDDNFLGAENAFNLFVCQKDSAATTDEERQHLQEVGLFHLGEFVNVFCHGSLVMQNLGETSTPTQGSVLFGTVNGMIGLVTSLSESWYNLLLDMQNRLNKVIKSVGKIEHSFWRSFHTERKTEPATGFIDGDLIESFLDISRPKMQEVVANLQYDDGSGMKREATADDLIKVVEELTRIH

Row | Dmax | DC50 | SMILES
1 | 60 to 90% | 2 to 10 nM | CCOc1cc(-c2ccc(N3CCC(CN4CCN(C(=O)CCCCCCN5CCN(c6ccc7c(c6)CN(C6CCC(=O)NC6=O)C7=O)CC5)CC4)(NC(=O)c4ncccc4F)CC3)nc2)c2c(C#N)cnn2c1 (stereo not shown) [Example 2, N-(1-(5-(3-cyano-6-ethoxypyrazolo[1,5-a]pyridin-4-yl)pyridin-2-yl)-4-((4-(7-(4-(2-(2,6-dioxopiperidin-3-yl)-1-oxoisoindolin-5-yl)piperazin-1-yl)heptanoyl)piperazin-1-yl)methyl)piperidin-4-yl)-3-fluoropicolinamide]
2 | 60 to 90% | < 2 nM | CCOc1cc(-c2ccc(N3CCC(CN4CCN(CC5CCN(C(=O)COc6ccc7c(c6)CN(C6CCC(=O)NC6=O)C7=O)CC5)CC4)(NC(=O)c4cc(F)ccc4F)CC3)nc2)c2c(C#N)cnn2c1 (stereo not shown) [Example 114, N-[1-(5-{3-cyano-6-ethoxypyrazolo[1,5-a]pyridin-4-yl}pyridin-2-yl)-4-[(4-{[1-(2-{[2-(2,6-dioxopiperidin-3-yl)-1-oxo-2,3-dihydro-1H-isoindol-5-yl]oxy}acetyl)piperidin-4-yl]methyl}piperazin-1-yl)methyl]piperidin-4-yl]-2,5-difluorobenzamide]
3 | > 90% | 10 to 100 nM | CCOc1cc(-c2ccc(N3CCC(NC(=O)c4cc(F)ccc4F)(C(=O)NCCCCCCCCCCNc4cccc5c(N6CCC(=O)NC6=O)nn(C)c45)CC3)nc2)c2c(C#N)cnn2c1 [Example 150, 1-(5-{3-cyano-6-ethoxypyrazolo[1,5-a]pyridin-4-yl}pyridin-2-yl)-4-(2,5-difluorobenzamido)-N-(10-{[3-(2,4-dioxo-1,3-diazinan-1-yl)-1-methyl-1H-indazol-7-yl]amino}decyl)piperidine-4-carboxamide]
4 | > 90% | 10 to 100 nM | CCOc1cc(-c2ccc(N3CCC(CN4CCN(CCOCCC(=O)N5CCN(c6ccc7c(c6)C(=O)N(C6CCC(=O)NC6=O)C7)CC5)CC4)(NC(=O)c4cc(F)ccc4F)CC3)nc2)c2c(C#N)cnn2c1 (stereo not shown) [Example 103, N-[1-(5-{3-cyano-6-ethoxypyrazolo[1,5-a]pyridin-4-yl}pyridin-2-yl)-4-({4-[2-(3-{4-[2-(2,6-dioxopiperidin-3-yl)-3-oxo-2,3-dihydro-1H-isoindol-5-yl]piperazin-1-yl}-3-oxopropoxy)ethyl]piperazin-1-yl}methyl)piperidin-4-yl]-2,5-difluorobenzamide]
5 | 60 to 90% | 2 to 10 nM | CCOc1cc(-c2ccc(N3CCC(NC(=O)c4cc(F)ccc4F)(C(=O)NCCCCN4CCN(c5ccc6c(c5)C(=O)N(C5CCC(=O)NC5=O)C6)CC4)CC3)nc2)c2c(C#N)cnn2c1 (stereo not shown) [Example 159, 1-(5-{3-cyano-6-ethoxypyrazolo[1,5-a]pyridin-4-yl}pyridin-2-yl)-4-(2,5-difluorobenzamido)-N-(4-{4-[2-(2,6-dioxopiperidin-3-yl)-3-oxo-2,3-dihydro-1H-isoindol-5-yl]piperazin-1-yl}butyl)piperidine-4-carboxamide]
6 | 60 to 90% | < 2 nM | CCOc1cc(-c2ccc(N3CCC(CN4CCN(C(=O)CCN5CCN(c6ccc7c(N8CCC(=O)NC8=O)nn(C)c7c6)CC5)CC4)(NC(=O)c4cc(F)ccc4F)CC3)nc2)c2c(C#N)cnn2c1 [Example 39, N-(1-(5-(3-cyano-6-ethoxypyrazolo[1,5-a]pyridin-4-yl)pyridin-2-yl)-4-((4-(3-(4-(3-(2,4-dioxotetrahydropyrimidin-1(2H)-yl)-1-methyl-1H-indazol-6-yl)piperazin-1-yl)propanoyl)piperazin-1-yl)methyl)piperidin-4-yl)-2,5-difluorobenzamide]
7 | 60 to 90% | 2 to 10 nM | CCOc1cc(-c2ccc(N3CCC(CN4CCN(C(=O)CCOCCNc5ccc6c(N7CCC(=O)NC7=O)nn(C)c6c5)CC4)(NC(=O)c4cc(F)ccc4F)CC3)nc2)c2c(C#N)cnn2c1 [Example 105, N-[1-(5-{3-cyano-6-ethoxypyrazolo[1,5-a]pyridin-4-yl}pyridin-2-yl)-4-({4-[3-(2-{[3-(2,4-dioxo-1,3-diazinan-1-yl)-1-methyl-1H-indazol-6-yl]amino}ethoxy)propanoyl]piperazin-1-yl}methyl)piperidin-4-yl]-2,5-difluorobenzamide]
8 | 60 to 90% | 10 to 100 nM | CCOc1cc(-c2ccc(N3CCC(CN4CCN(CCOCCOCCC(=O)N5CCN(c6ccc7c(c6)CN(C6CCC(=O)NC6=O)C7=O)CC5)CC4)(NC(=O)c4cc(F)ccc4F)CC3)nc2)c2c(C#N)cnn2c1 (stereo not shown) [Example 109, N-[1-(5-{3-cyano-6-ethoxypyrazolo[1,5-a]pyridin-4-yl}pyridin-2-yl)-4-[(4-{2-[2-(3-{4-[2-(2,6-dioxopiperidin-3-yl)-1-oxo-2,3-dihydro-1H-isoindol-5-yl]piperazin-1-yl}-3-oxopropoxy)ethoxy]ethyl}piperazin-1-yl)methyl]piperidin-4-yl]-2,5-difluorobenzamide]
9 | > 90% | 10 to 100 nM | CCOc1cc(-c2ccc(N3CCC(CN4CCN(CCOCCC(=O)N5CCC(c6ccc7c(c6)C(=O)N(C6CCC(=O)NC6=O)C7)CC5)CC4)(NC(=O)c4cc(F)ccc4F)CC3)nc2)c2c(C#N)cnn2c1 (stereo not shown) [Example 101, N-[1-(5-{3-cyano-6-ethoxypyrazolo[1,5-a]pyridin-4-yl}pyridin-2-yl)-4-({4-[2-(3-{4-[2-(2,6-dioxopiperidin-3-yl)-3-oxo-2,3-dihydro-1H-isoindol-5-yl]piperidin-1-yl}-3-oxopropoxy)ethyl]piperazin-1-yl}methyl)piperidin-4-yl]-2,5-difluorobenzamide]
10 | 60 to 90% | 10 to 100 nM | CCOc1cc(-c2ccc(N3CCC(CN4CCN(CCOCCOCCC(=O)Nc5ccc6c(N7CCC(=O)NC7=O)nn(C)c6c5)CC4)(NC(=O)c4cc(F)ccc4F)CC3)nc2)c2c(C#N)cnn2c1 [Example 108, N-[1-(5-{3-cyano-6-ethoxypyrazolo[1,5-a]pyridin-4-yl}pyridin-2-yl)-4-[(4-{2-[2-(2-{[3-(2,4-dioxo-1,3-diazinan-1-yl)-1-methyl-1H-indazol-6-yl]carbamoyl}ethoxy)ethoxy]ethyl}piperazin-1-yl)methyl]piperidin-4-yl]-2,5-difluorobenzamide]
11 | > 90% | < 2 nM | CCOc1cc(-c2ccc(N3CCC(CN4CCN(C(=O)CCCCN5CCC(c6ccc7c(c6)C(=O)N(C6CCC(=O)NC6=O)C7)CC5)CC4)(NC(=O)c4cc(F)ccc4F)CC3)nc2)c2c(C#N)cnn2c1 (stereo not shown) [Example 18, N-[1-(5-{3-cyano-6-ethoxypyrazolo[1,5-a]pyridin-4-yl}pyridin-2-yl)-4-{[4-(5-{4-[2-(2,6-dioxopiperidin-3-yl)-3-oxo-2,3-dihydro-1H-isoindol-5-yl]piperidin-1-yl}pentanoyl)piperazin-1-yl]methyl}piperidin-4-yl]-2,5-difluorobenzamide]
12 | > 90% | 2 to 10 nM | CCOc1cc(-c2ccc(N3CCC(CN4CCN(CCC(=O)N5CCC(c6ccc7c(c6)C(=O)N(C6CCC(=O)NC6=O)C7)CC5)CC4)(NC(=O)c4cc(F)ccc4F)CC3)nc2)c2c(C#N)cnn2c1 (stereo not shown) [Example 116, N-[1-(5-{3-cyano-6-ethoxypyrazolo[1,5-a]pyridin-4-yl}pyridin-2-yl)-4-{[4-(3-{4-[2-(2,6-dioxopiperidin-3-yl)-3-oxo-2,3-dihydro-1H-isoindol-5-yl]piperidin-1-yl}-3-oxopropyl)piperazin-1-yl]methyl}piperidin-4-yl]-2,5-difluorobenzamide]
13 | > 90% | < 2 nM | CCOc1cc(-c2ccc(N3CCC(CN4CCN(C5CN(C(=O)c6ccc7c(N8CCC(=O)NC8=O)nn(C)c7c6)C5)CC4)(NC(=O)c4cc(F)ccc4F)CC3)nc2)c2c(C#N)cnn2c1 [Example 64, N-[1-(5-{3-cyano-6-ethoxypyrazolo[1,5-a]pyridin-4-yl}pyridin-2-yl)-4-[(4-{1-[3-(2,4-dioxo-1,3-diazinan-1-yl)-1-methyl-1H-indazole-6-carbonyl]azetidin-3-yl}piperazin-1-yl)methyl]piperidin-4-yl]-2,5-difluorobenzamide]
14 | 60 to 90% | < 2 nM | CCOc1cc(-c2ccc(N3CCC(CN4CCN(C(=O)CN5CCC(c6ccc7c(N8CCC(=O)NC8=O)nn(C)c7c6)CC5)CC4)(NC(=O)c4cc(F)ccc4F)CC3)nc2)c2c(C#N)cnn2c1 [Example 44, N-(1-(5-(3-cyano-6-ethoxypyrazolo[1,5-a]pyridin-4-yl)pyridin-2-yl)-4-((4-(2-(4-(3-(2,4-dioxotetrahydropyrimidin-1(2H)-yl)-1-methyl-1H-indazol-6-yl)piperidin-1-yl)acetyl)piperazin-1-yl)methyl)piperidin-4-yl)-2,5-difluorobenzamide]
